In US7772241B2, “Variolin derivatives and their use as antitumor agents” (Pharma Mar S.A., priority 2001, dated 2010):

Legend:
PANC-1 = assay: Inhibition of cells growth by colorimetric (SRB) assay, PANC-1; details: for GI50 / CC50: Homo sapiens, PANC-1, 48 h; for GI50: read-out: GI50 PANC-1, SRB assay, 48 hours exposure; for CC50: read-out: LC50 PANC-1, SRB assay, 48 hours exposure; for TGI PANC-1: SRB assay, 48 hours exposure
Procedure, shortened: (§1)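 Read-out is sulforhodamine B protein stain (OD 490 nm) after cold TCA fixation, following 48 h continuous exposure to samples spanning 10 to 10^−8 μg/ml.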

HT-29 = assay: Inhibition of cells growth by colorimetric (SRB) assay, HT-29; details: for GI50 / CC50: Homo sapiens, HT-29, 48 h; for GI50: read-out: GI50 HT-29, SRB assay, 48 hours exposure; for CC50: read-out: LC50 HT-29, SRB assay, 48 hours exposure; for TGI HT-29: SRB assay, 48 hours exposure
Procedure, shortened: as §1

LoVo = assay: Inhibition of cells growth by colorimetric (SRB) assay, LoVo; details: for GI50 / CC50: Homo sapiens, LoVo, 48 h; for GI50: read-out: GI50 LOVO, SRB assay, 48 hours exposure; for CC50: read-out: LC50 LOVO, SRB assay, 48 hours exposure; for TGI LOVO: SRB assay, 48 hours exposure
Procedure, shortened: as §1

LoVo-Dox = assay: Inhibition of cells growth by colorimetric (SRB) assay, LoVo-Dox; details: for GI50 / CC50: Homo sapiens, 48 h; for GI50: read-out: GI50 LOVO-DOX, SRB assay, 48 hours exposure; for CC50: read-out: LC50 LOVO-DOX, SRB assay, 48 hours exposure; for TGI LOVO-DOX: SRB assay, 48 hours exposure
Procedure, shortened: as §1

SK-MEL-28 = assay: Inhibition of cells growth by colorimetric (SRB) assay, SK-MEL-28; details: for GI50 / CC50: Homo sapiens, SK-MEL-28, 48 h; for GI50: read-out: GI50 MEL-28, SRB assay, 48 hours exposure; for CC50: read-out: LC50 MEL-28, SRB assay, 48 hours exposure; for TGI MEL-28: SRB assay, 48 hours exposure
Procedure, shortened: as §1

IGROV-1 = assay: Inhibition of cells growth by colorimetric (SRB) assay, IGROV-1; details: for GI50 / CC50: Homo sapiens, IGROV-1, 48 h; for GI50: read-out: GI50 IGROV, SRB assay, 48 hours exposure; for CC50: read-out: LC50 IGROV, SRB assay, 48 hours exposure; for TGI IGROV: SRB assay, 48 hours exposure
Procedure, shortened: as §1

K-562 = assay: Inhibition of cells growth by colorimetric (SRB) assay, K-562; details: for GI50 / CC50: Homo sapiens, K562, 48 h; for GI50: read-out: GI50 K-562, SRB assay, 48 hours exposure; for CC50: read-out: LC50 K-562, SRB assay, 48 hours exposure; for TGI K-562: SRB assay, 48 hours exposure
Procedure, shortened: as §1

IGROV-ET = assay: Inhibition of cells growth by colorimetric (SRB) assay, IGROV-ET; details: for GI50 / CC50: Homo sapiens, 48 h; for GI50: read-out: GI50 IGROV-ET, SRB assay, 48 hours exposure; for CC50: read-out: LC50 IGROV-ET, SRB assay, 48 hours exposure; for TGI IGROV-ET: SRB assay, 48 hours exposure
Procedure, shortened: as §1

A-549 = assay: Inhibition of cells growth by colorimetric (SRB) assay, A-549; details: for GI50 / CC50: Homo sapiens, A549, 48 h; for GI50: read-out: GI50 A-549, SRB assay, 48 hours exposure; for CC50: read-out: LC50 A-549, SRB assay, 48 hours exposure; for TGI A-549: SRB assay, 48 hours exposure
Procedure, shortened: as §1

SK-OV-3 = assay: Inhibition of cells growth by colorimetric (SRB) assay, SK-OV-3; details: for GI50 / CC50: Homo sapiens, SK-OV-3, 48 h; for GI50: read-out: GI50 SKOV-3, SRB assay, 48 hours exposure; for CC50: read-out: LC50 SKOV-3, SRB assay, 48 hours exposure; for TGI SKOV-3: SRB assay, 48 hours exposure
Procedure, shortened: as §1

LNCaP = assay: Inhibition of cells growth by colorimetric (SRB) assay, LNCaP; details: for GI50 / CC50: Homo sapiens, LNCaP, 48 h; for GI50: read-out: GI50 LN-caP, SRB assay, 48 hours exposure; for CC50: read-out: LC50 LN-caP, SRB assay, 48 hours exposure; for TGI LN-caP: SRB assay, 48 hours exposure
Procedure, shortened: as §1

DU-145 = assay: Inhibition of cells growth by colorimetric (SRB) assay, DU-145; details: for GI50 / CC50: Homo sapiens, DU-145, 48 h; for GI50: read-out: GI50 DU-145, SRB assay, 48 hours exposure; for CC50: read-out: LC50 DU-145, SRB assay, 48 hours exposure; for TGI DU-145: SRB assay, 48 hours exposure
Procedure, shortened: as §1

SK-BR-3 = assay: Inhibition of cells growth by colorimetric (SRB) assay, SK-BR-3; details: for GI50 / CC50: Homo sapiens, SK-BR-3, 48 h; for GI50: read-out: GI50 SK-BR-3, SRB assay, 48 hours exposure; for CC50: read-out: LC50 SK-BR-3, SRB assay, 48 hours exposure; for TGI SK-BR-3: SRB assay, 48 hours exposure
Text: The finality of these assays is to interrupt the growth of a “in vitro” tumor cell culture by means a continued exhibition of the cells to the sample to be testing.
This form of the assay employs 96 well cell culture microplates of 9 mm diameter (Faircloth, 1988; Mosmann, 1983). Most of the cell lines are obtained from American Type Culture Collection (ATCC) derived from different human cancer types.
Cells are maintained in RPMI 1640 10% FBS, supplemented with 0.1 g/l penicillin and 0.1 g/l streptomycin sulphate and then incubated at 37° C., 5% CO2 and 98% humidity. For the experiments, cells were harvested from subconfluent cultures using trypsin and resuspended in fresh medium before plating.
Cells are seeded in 96 well microtiter plates, at 5×10^3 cells per well in aliquots of 195 μl medium, and they are allowed to attach to the plate surface by growing in drug free medium for 18 hours. Afterward, samples are added in aliquots of 5 μl in a ranging from 10 to 10^−8 μg/ml, dissolved in DMSO/EtOH/PBS (0.5:0.5:99). After 48 hours exposure, the antitumor effect are measured by the SRB methodology: cells are fixed by adding 50 μl of cold 50% (wt/vol) trichloroacetic acid (TCA) and incubating for 60 minutes at 4° C. Plates are washed with deionized water and dried. One hundred μl of SRB solution (0.4% wt/vol in 1% acetic acid) is added to each microtiter well and incubated for 10 minutes at room temperature. Unbound SRB is removed by washing with 1% acetic acid. Plates are air dried and bound stain is solubilized with Tris buffer. Optical densities are read on a automated spectrophotometric plate reader at a single wavelength of 490 nm.
The values for mean +/−SD of data from triplicate wells are calculated. Some parameters for cellular responses can be calculated: GI=growth inhibition, TGI=total growth inhibition (cytostatic effect) and LC=cell killing (cytotoxic effect).

COc1ccc2nc3c(cc2c1)c(-c1ccnc(N)n1)c1ccnc(N)n13 [Compound 19b]
GI50 (PANC-1): 8.87 µM | CC50 (PANC-1): 28 µM | TGI PANC-1 (PANC-1): 2.80E−05 | GI50 (HT-29): 15.2 µM | CC50 (HT-29): 28 µM | TGI HT-29 (HT-29): 2.80E−05 | GI50 (LoVo): 3.25 µM | CC50 (LoVo): 28 µM | TGI LOVO (LoVo): 1.97E−05 | GI50 (LoVo-Dox): 7.42 µM | CC50 (LoVo-Dox): 28 µM | TGI LOVO-DOX (LoVo-Dox): 2.10E−05 | GI50 (SK-MEL-28): 4.92 µM | CC50 (SK-MEL-28): 28 µM | TGI MEL-28 (SK-MEL-28): 1.65E−05 | GI50 (IGROV-1): 4.11 µM | CC50 (IGROV-1): 19.4 µM | TGI IGROV (IGROV-1): 8.93E−06 | GI50 (K-562): 8.48 µM | CC50 (K-562): 28 µM | TGI K-562 (K-562): 1.59E−05 | GI50 (IGROV-ET): 3.27 µM | CC50 (IGROV-ET): 20.4 µM | TGI IGROV-ET (IGROV-ET): 8.17E−06 | GI50 (A-549): 0.453 µM | CC50 (A-549): 28 µM | TGI A-549 (A-549): 2.80E−05 | GI50 (SK-OV-3): 8.28 µM | CC50 (SK-OV-3): 28 µM | TGI SKOV-3 (SK-OV-3): 1.89E−05 | GI50 (LNCaP): 2.36 µM | CC50 (LNCaP): 27.6 µM | TGI LN-caP (LNCaP): 8.59E−06 | GI50 (DU-145): 5.79 µM | CC50 (DU-145): 28 µM | TGI DU-145 (DU-145): 2.39E−05 | GI50 (SK-BR-3): 1.89 µM | CC50 (SK-BR-3): 28 µM | TGI SK-BR-3 (SK-BR-3): 8.23E−06

CSc1nccc(-c2c3cccnc3n3ccccc23)n1 [Compound 55]
GI50 (PANC-1): 8.79 µM | CC50 (PANC-1): ≥ 34.2 µM | TGI PANC-1 (PANC-1): 2.91E−05 | GI50 (HT-29): 13.2 µM | CC50 (HT-29): ≥ 34.2 µM | TGI HT-29 (HT-29): 3.42E−05 | GI50 (LoVo): 9.92 µM | CC50 (LoVo): ≥ 34.2 µM | TGI LOVO (LoVo): 3.42E−05 | GI50 (LoVo-Dox): 3.93 µM | CC50 (LoVo-Dox): 26.4 µM | TGI LOVO-DOX (LoVo-Dox): 1.02E−05 | GI50 (SK-MEL-28): 11.6 µM | CC50 (SK-MEL-28): ≥ 34.2 µM | TGI MEL-28 (SK-MEL-28): 3.20E−05 | GI50 (IGROV-1): 7.42 µM | CC50 (IGROV-1): ≥ 34.2 µM | TGI IGROV (IGROV-1): 1.53E−05 | GI50 (K-562): 9.71 µM | CC50 (K-562): ≥ 34.2 µM | TGI K-562 (K-562): 1.83E−05 | GI50 (IGROV-ET): 8.79 µM | CC50 (IGROV-ET): ≥ 34.2 µM | TGI IGROV-ET (IGROV-ET): 2.00E−05 | GI50 (A-549): 7.29 µM | CC50 (A-549): ≥ 34.2 µM | TGI A-549 (A-549): 1.90E−05 | GI50 (SK-OV-3): 7.73 µM | CC50 (SK-OV-3): ≥ 34.2 µM | TGI SKOV-3 (SK-OV-3): 2.09E−05 | GI50 (LNCaP): 6.84 µM | CC50 (LNCaP): ≥ 34.2 µM | TGI LN-caP (LNCaP): 1.55E−05 | GI50 (DU-145): 11.4 µM | CC50 (DU-145): ≥ 34.2 µM | TGI DU-145 (DU-145): 3.38E−05 | GI50 (SK-BR-3): 8.82 µM | CC50 (SK-BR-3): ≥ 34.2 µM | TGI SK-BR-3 (SK-BR-3): 2.32E−05
